These results are taken from paper PMC6934700, “Structure-Guided Design of a Fluorescent Probe for the Visualization of FtsZ in Clinically Important Gram-Positive and Gram-Negative Bacterial Pathogens” (Scientific Reports, 2019).

Where two headings read alike, the source gives them in different places.

One assay deals with T1, A. baumannii (AbFtsZ) (Acinetobacter baumannii, UniProt V5V8B6).
T1 sequence (V5V8B6 1-391): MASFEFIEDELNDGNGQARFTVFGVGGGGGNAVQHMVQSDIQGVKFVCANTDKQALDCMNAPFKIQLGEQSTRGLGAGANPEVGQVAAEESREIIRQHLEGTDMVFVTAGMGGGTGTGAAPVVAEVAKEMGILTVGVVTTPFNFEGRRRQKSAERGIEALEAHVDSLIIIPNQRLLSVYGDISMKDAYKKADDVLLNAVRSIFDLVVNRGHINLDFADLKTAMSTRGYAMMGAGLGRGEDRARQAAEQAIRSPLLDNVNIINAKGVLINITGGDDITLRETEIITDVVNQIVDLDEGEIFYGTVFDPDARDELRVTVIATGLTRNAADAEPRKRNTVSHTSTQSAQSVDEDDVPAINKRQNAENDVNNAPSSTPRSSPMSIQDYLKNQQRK
Briefly: Fluorescence anisotropy binding of BOFP to AbFtsZ. The conditions noted are these: for Kd: 50 mM Tris-HCl (pH 7.6), 50 mM KCl, 0.1 µM BOFP. The method, then: (§1) Fluorescence anisotropy experiments were performed using an AVIV model ATF105 spectrofluorometer at 15, 25, or 37 °C. In these experiments, bandwidths were set to 4 nm in both the excitation and emission directions, with the excitation and emission wavelengths being set at 488 nm and 510 nm, respectively. BOFP (0.1 µM) was titrated with increasing concentrations (ranging from 0 to 12 µM) of FtsZ in 120 µL of buffer containing 50 mM Tris-HCl (pH 7.6) and 50 mM KCl. After each protein addition, the samples were equilibrated for 3 minutes, whereupon the fluorescence anisotropy was measured.
(§2) In this equation, r0 is the anisotropy of the protein-free compound, r∞ is the anisotropy of the compound in the presence of an infinite concentration of FtsZ, [C]tot is the total concentration of the compound, and [P]tot is the total concentration of protein with each addition. These analyses yielded the equilibrium dissociation constant (Kd) for each binding reaction.
(§3) The binding free energy (ΔG) at temperature T was derived from the corresponding Kd value determined at T using the following relationship:2 ΔG=−RTln(1/Kd)
(§4) The binding enthalpy (ΔH) and entropy (ΔS) were derived from linear fits of the ln(1/Kd) vs. 1/T plots shown in Figs. 3f and 5e using the following relationship:3 ln(1/Kd)=−ΔH/R(1/T)+ΔS/R
Background: Fluorescence polarisation rises when a labelled molecule tumbles more slowly, as on binding a larger partner.

Assay [1] has as its system FtsZ in S. pneumoniae ATCC 49619 cells. The assay can be described thus: FtsZ visualization by fluorescence microscopy in live cells. The format is cell-based, Streptococcus pneumoniae. The conditions noted are these: 1 µg/mL for 5 minutes. The protocol:
(§5) All differential interference contrast (DIC) and fluorescence microscopy experiments were conducted using an Olympus BX50 microscope equipped with an X-cite Exacte 200 W mercury lamp, a 100× Olympus UPLSAPO oil immersion objective (1.40 aperture), as well as both Chroma ET-EGFP (FITC/Cy2) and ET mCherry, Texas Red filters. Images were captured using a QImaging Retiga R3 charge-coupled device (CCD) camera and the Ocular-Version 2.0 software package (QImaging).
(§6) For visualizing FtsZ in Gram-positive bacteria using BOFP, the bacterial cells were grown to log-phase in media suitable for each individual pathogen. Specifically, S. aureus NRS705 (MRSA) was grown in tryptic soy broth (TSB), E. faecalis ATCC 29212 and E. faecium ATCC 19434 were grown in lactobacilli MRS broth, S. agalactiae ATCC 12386 and S. pneumoniae ATCC 49619 were grown in TH broth, and S. pyogenes ATCC 19615 was grown in CAMH broth supplemented with 3% (v/v) LHB. For each Gram-positive bacterial strain, a total of 1 mL of cell culture was centrifuged at 15,000 × g for 1 minute and washed 2–3 times with 1 mL of PBS. After the final wash, the pelleted cells were resuspended in 500 µL of PBS containing 1 µg/mL of BOFP and incubated in the dark for 5 minutes at room temperature. The cells were then centrifuged at 15,000 × g for 1 minute, washed twice with 1 mL of PBS, and subsequently resuspended in 200 µL of PBS. […]

The next assay has as its target E. faecalis (EfsFtsZ) (Enterococcus faecalis, UniProt O08439). The assay can be described thus: Fluorescence anisotropy binding of BOFP to EfsFtsZ. The conditions noted are these: for Kd: 50 mM Tris-HCl (pH 7.6), 50 mM KCl, 0.1 µM BOFP. The protocol: as §1, §2, §3, §4
The next assay has as its target K. pneumoniae (KpFtsZ) (Klebsiella pneumoniae, UniProt A0A0H3GRR0). Briefly: Fluorescence anisotropy binding of BOFP to KpFtsZ. The note with it: for Kd: 50 mM Tris-HCl (pH 7.6), 50 mM KCl, 0.1 µM BOFP. The method, then:
as §1, §2, §3, §4
In comparative control experiments, the anisotropy of 0.1 µM BODIPY FL-COOH or BOFP alone or in the presence of SaFtsZ (10 µM), SpyFtsZ (10 µM), KpFtsZ (2 µM), or PaFtsZ (2 µM) was measured at 37 °C in the same buffer described above.

Assay [2] deals with FtsZ in E. faecium ATCC 19434 cells. Briefly: FtsZ visualization by fluorescence microscopy in live cells. The format is cell-based, Enterococcus faecium. The note with it: 1 µg/mL for 5 minutes. The protocol:
as §5, §6

Assay [3] concerns FtsZ in S. pyogenes ATCC 19615 cells. The description is as above. The conditions noted are these: 1 µg/mL for 5 minutes. It counts as cell-based, Streptococcus pyogenes. The protocol:
as §5, §6

The subject of the next assay is MRSA LAC FtsZ-mCherry. The assay can be described thus: Colocalization of BOFP labeling with induced FtsZ-mCherry fusion protein. The format is cell-based, Staphylococcus aureus. The note with it: 1 µg/mL BOFP for 5 minutes; vehicle-treated and 1-treated cells. The method, then:
as §5
To visualize the impact of treating MRSA LAC FtsZ-mCherry with 1, cells were grown to log-phase in CAMH broth and diluted to an OD600 of 0.1. […] Following this treatment, 1–5 mL of each culture was centrifuged at 15,000 × g for 1 minute and washed twice with 1 mL of PBS. The resulting cell pellets were further processed and labeled with BOFP as described above for the Gram-positive bacterial strains.

[4] abbreviates: from linear fit of ln(1/Kd) vs. 1/T.
Where [5] appears, read: calculated at T = 310 K (37 °C) from Kd.

One may read the Kd as the concentration at which binding is half-saturated.

Chain of E. faecalis (EfsFtsZ) (O08439 whole entry): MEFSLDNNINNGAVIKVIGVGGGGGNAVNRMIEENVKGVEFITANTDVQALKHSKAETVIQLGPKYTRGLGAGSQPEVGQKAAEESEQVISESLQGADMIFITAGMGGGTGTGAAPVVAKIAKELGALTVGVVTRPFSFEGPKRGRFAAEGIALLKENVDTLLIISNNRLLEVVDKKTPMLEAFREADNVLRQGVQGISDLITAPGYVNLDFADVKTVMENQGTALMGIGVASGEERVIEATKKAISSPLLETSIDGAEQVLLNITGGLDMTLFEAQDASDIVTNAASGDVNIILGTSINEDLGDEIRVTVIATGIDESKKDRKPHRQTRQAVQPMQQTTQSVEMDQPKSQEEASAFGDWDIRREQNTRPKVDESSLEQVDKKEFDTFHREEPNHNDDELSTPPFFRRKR
Chain of K. pneumoniae (KpFtsZ) (A0A0H3GRR0 entry or part of it): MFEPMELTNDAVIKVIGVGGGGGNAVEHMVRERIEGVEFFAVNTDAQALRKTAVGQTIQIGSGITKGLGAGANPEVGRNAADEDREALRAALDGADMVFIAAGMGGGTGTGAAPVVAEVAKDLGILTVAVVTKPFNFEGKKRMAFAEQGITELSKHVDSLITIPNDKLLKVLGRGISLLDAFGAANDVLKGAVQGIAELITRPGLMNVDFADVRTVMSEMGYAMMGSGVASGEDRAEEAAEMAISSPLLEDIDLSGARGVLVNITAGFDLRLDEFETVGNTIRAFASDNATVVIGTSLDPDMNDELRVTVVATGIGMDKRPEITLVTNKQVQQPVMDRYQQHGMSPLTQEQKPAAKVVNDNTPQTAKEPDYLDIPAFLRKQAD

For `CC1=CC(C)=[N+]2C1=Cc1ccc(CCC(=O)OCC(Oc3ccc(F)c(C(N)=O)c3F)c3nc(-c4ccc(C(F)(F)F)cc4)c(Br)o3)n1[B-]2(F)F` (stereo not shown) [BOFP], the Kd on A. baumannii (AbFtsZ) (15 °C, read-out: Kd - 15 °C) stood at 400 ± 30 nM; at A. baumannii (AbFtsZ) (25 °C, read-out: Kd - 25 °C), 550 ± 20 nM; on A. baumannii (AbFtsZ) (37 °C, read-out: Kd - 37 °C), 680 ± 40 nM; at E. faecalis (EfsFtsZ) (Kd - 15 °C, 15 °C), 1720 ± 60 nM; on E. faecalis (EfsFtsZ) (Kd - 25 °C, 25 °C), 3050 ± 250 nM; on E. faecalis (EfsFtsZ) (Kd - 37 °C, 37 °C) it was 4620 ± 120 nM. For the same compound, the Kd on K. pneumoniae (KpFtsZ) (15 °C, read-out: Kd - 15 °C) is 420 ± 50 nM; at K. pneumoniae (KpFtsZ) (25 °C, read-out: Kd - 25 °C) it was 580 ± 40 nM; at K. pneumoniae (KpFtsZ) (37 °C, read-out: Kd - 37 °C), 820 ± 40 nM. For the same compound, the ΔH on A. baumannii (AbFtsZ) (setting [4]) was -4.2 ± 0.6 kcal/mol; at E. faecalis (EfsFtsZ) (setting [4]), -7.9 ± 1.0 kcal/mol; on K. pneumoniae (KpFtsZ) (setting [4]), -5.4 ± 0.1 kcal/mol. For the same compound, the “Fluorescence staining / FtsZ labeling in live cells” value in assay [1], in assay [2] and in assay [3] was “bright bands of fluorescence staining are clearly visible at midcell” throughout. Further, the ΔG at E. faecalis (EfsFtsZ) (setting [5]) is -7.6 ± 0.1 kcal/mol; at K. pneumoniae (KpFtsZ) (setting [5]), -8.6 ± 0.1 kcal/mol. The ΔS at E. faecalis (EfsFtsZ) (setting [4]) is −1.2 ± 3.3 cal/mol•K. The “Colocalization of BOFP green fluorescence with FtsZ-mCherry red fluorescence” value in the assay with MRSA LAC FtsZ-mCherry is “colocalizes with the red fluorescence”.
